Results on 31 molecules are retold here after patent US10428066B2, “Imidazo[4,5-C]pyridine and pyrrolo[2,3-C]pyridine derivatives as SSAO inhibitors” (PROXIMAGEN, LLC, priority 2013, dated 2019).

Structures are written as SMILES.

purified recombinantly expressed human SSAO, sequence (Q16853 29-763): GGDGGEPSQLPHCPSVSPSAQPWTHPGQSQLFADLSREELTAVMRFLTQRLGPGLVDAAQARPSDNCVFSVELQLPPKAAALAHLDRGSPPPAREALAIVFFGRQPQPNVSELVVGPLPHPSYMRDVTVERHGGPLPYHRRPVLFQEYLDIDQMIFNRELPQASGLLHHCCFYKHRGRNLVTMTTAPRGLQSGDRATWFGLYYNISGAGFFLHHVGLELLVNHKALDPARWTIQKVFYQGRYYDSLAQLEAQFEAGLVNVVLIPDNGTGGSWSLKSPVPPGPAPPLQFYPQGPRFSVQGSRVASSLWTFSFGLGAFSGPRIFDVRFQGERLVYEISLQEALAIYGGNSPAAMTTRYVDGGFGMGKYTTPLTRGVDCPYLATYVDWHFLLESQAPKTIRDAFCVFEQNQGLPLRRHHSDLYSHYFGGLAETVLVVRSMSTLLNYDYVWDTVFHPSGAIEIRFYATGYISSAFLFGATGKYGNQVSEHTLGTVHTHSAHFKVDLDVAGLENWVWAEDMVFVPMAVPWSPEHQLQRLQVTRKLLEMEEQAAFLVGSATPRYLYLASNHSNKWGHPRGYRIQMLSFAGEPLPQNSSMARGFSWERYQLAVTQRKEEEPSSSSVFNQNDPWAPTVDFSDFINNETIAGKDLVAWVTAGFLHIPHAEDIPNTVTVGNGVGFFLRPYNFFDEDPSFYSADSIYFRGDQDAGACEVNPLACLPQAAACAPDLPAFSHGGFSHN

The test addresses purified recombinantly expressed human SSAO (Homo sapiens (Human), UniProt Q16853). Kind of test: SSAO enzyme inhibition assay (HRP-coupled hydrogen peroxide detection or 14C-benzaldehyde detection, benzylamine substrate). Conditions: human recombinant SSAO, RT. In kind it is biochemical. The method, then: All primary assays were performed at RT. with purified recombinantly expressed human SSAO. Enzyme was prepared essentially as described in Öhman et al. (Protein Expression and Purification 46 (2006) 321-331). In addition, secondary- and selectivity assays were performed using SSAO prepared from various tissues or purified rat recombinant SSAO. The enzyme activity was assayed with benzylamine as substrate by measuring either benzaldehyde production, using ^14C-labeled substrate, or by utilizing the production of hydrogen peroxide in a horseradish peroxidase (HRP) coupled reaction. Briefly, test compounds were dissolved in dimethyl sulfoxide (DMSO) to a concentration of 10 mM. Dose-response measurements were assayed by either creating 1:10 serial dilutions in DMSO to produce a 7 point curve or by making 1:3 serial dilutions in DMSO to produce 11 point curves.
In a horseradish peroxidase (HRP) coupled reaction, hydrogen peroxide oxidation of 10-acetyl-3,7-dihydroxyphenoxazine produced resorufin, which is a highly fluorescent compound (Zhout and Panchuk-Voloshina. Analytical Biochemistry 253 (1997) 169-174; Amplex® Red Hydrogen Peroxide/peroxidase Assay kit, Invitrogen A22188). Enzyme and compounds in 50 mM sodium phosphate, pH 7.4 were set to pre-incubate in flat-bottomed microtiter plates for approximately 15 min before initiating the reaction by addition of a mixture of HRP, benzylamine and Amplex reagent. Benzylamine concentration was fixed at a concentration corresponding to the Michaelis constant, determined using standard procedures. Fluorescence intensity was then measured at several time points during 1-2 h, exciting at 544 nm and reading the emission at 590 nm. For the human SSAO assay final concentrations of the reagents in the assay wells were: SSAO enzyme 1 ug/ml, benzylamine 100 uM, Amplex reagent 20 uM, HRP 0.1 U/mL and varying concentrations of test compound. The inhibition was measured as % decrease of the signal compared to a control without inhibitor (only diluted DMSO). The background signal from a sample containing no SSAO enzyme was subtracted from all data points. Data was fitted to a four parameter logistic model and IC50 values were calculated using the GraphPad Prism 4 or XLfit 4 programs.
SSAO activity was assayed using 14C-labeled benzylamine and analysed by measuring radioactive benzaldehyde. In a white 96-well optiplate (Packard), 20 uL of diluted test compound was pre-incubated at room temperature with 20 uL SSAO enzyme for approximately 15 min with continuous agitation. All dilutions were made with PBS. The reaction was initiated by adding 20 uL of the benzylamine substrate solution containing [7-14C] Benzylamine hydrochloride (CFA589, GE Healthcare). The plate was incubated for 1 h as above after which the reaction was stopped by acidification (10 uL 1M aq HCl). Then 90 uL Micro Scint-E solution (Perkin-Elmer) was added to each well and the plate was continuously mixed for 15 min. Phase separation occurred instantly and activity was read in a Topcount scintillation counter (Perkin-Elmer). In the final reaction well, the human recombinant SSAO concentration was 10 ug/ml. In order to optimize sensitivity, the substrate concentration was decreased as compared to the HRP coupled assay in order to get a higher fraction of radioactive product. In the human SSAO assay, benzylamine concentration was 40 uM (0.2 uCi/mL). Data was analysed as above.
A word on the IC50: it is the point on the concentration scale where inhibition reaches its midpoint. For the molecule `Fc1ccc(-n2c(-c3cnc(N4CCOCC4)nc3)nc3ccncc32)c(Cl)c1` [Example 56, 4-{5-[3-(2-Chloro-4-fluorophenyl)-3H-imidazo[4,5-c]pyridin-2-yl]pyrimidin-2-yl}morpholine], the IC50 lay in the range of 200 to 1200 nM. Regarding `Cc1ccc(-n2c(-c3cnc(N4CCOCC4)nc3)nc3ccncc32)cc1` [Example 57, 4-{5-[3-(4-Methylphenyl)-3H-imidazo[4,5-c]pyridin-2-yl]pyrimidin-2-yl}morpholine], the IC50 is 50 to 200 nM. As for `Cc1ccc(-n2c(-c3cnc(N4CCOCC4)nc3)nc3ccncc32)cn1` [Example 58, 4-{5-[3-(6-Methylpyridin-3-yl)-3H-imidazo[4,5-c]pyridin-2-yl]pyrimidin-2-yl}morpholine], the IC50 lay within 200 to 1200 nM. Turning to `Brc1ccc(-n2c(-c3cnc(N4CCOCC4)nc3)nc3ccncc32)cc1` [Example 59, 4-{5-[3-(4-Bromophenyl)-3H-imidazo[4,5-c]pyridin-2-yl]pyrimidin-2-yl}morpholine], the IC50 lay within 50 to 200 nM.

Consider `Fc1ccccc1-n1c(-c2cnc(N3CCOCC3)nc2)nc2ccncc21` [Example 60, 4-{5-[3-(2-Fluorophenyl)-3H-imidazo[4,5-c]pyridin-2-yl]pyrimidin-2-yl}morpholine], for which the IC50 is 50 to 200 nM. For `Cc1cc(F)ccc1-n1c(-c2ccc(N3CCOCC3)nc2)nc2ccncc21` [Example 62, 4-{5-[3-(4-Fluoro-2-methylphenyl)-3H-imidazo[4,5-c]pyridin-2-yl]pyridin-2-yl}morpholine], the IC50 was 50 to 200 nM.

In the case of `Cc1ccc(-n2c(-c3ccc(N4CCOCC4)nc3)nc3ccncc32)cc1` [Example 63, 4-{5-[3-(4-Methylphenyl)-3H-imidazo[4,5-c]pyridin-2-yl]pyridin-2-yl}morpholine], the IC50 is 200 to 1200 nM. As for `Cc1ccc(-n2c(-c3ccc(N4CCOCC4)nc3)nc3ccncc32)cn1` [Example 64, 4-{5-[3-(6-Methylpyridin-3-yl)-3H-imidazo[4,5-c]pyridin-2-yl]pyridin-2-yl}morpholine], the IC50 lay within 200 to 1200 nM. For the molecule `FC(F)(F)c1ccc(-n2c(-c3ccc(N4CCOCC4)nc3)nc3ccncc32)cc1` [Example 66, 4-(5-{3-[4-(Trifluoromethyl)phenyl]-3H-imidazo[4,5-c]pyridin-2-yl}pyridin-2-yl)morpholine], the IC50 was 50 to 200 nM. On to `CN(C)c1ccc(-c2nc3ccncc3n2-c2ccc(F)cc2)cn1` [Example 71, 5-[3-(4-Fluorophenyl)-3H-imidazo[4,5-c]pyridin-2-yl]-N,N-dimethylpyridin-2-amine], for which the IC50 fell in the range of 200 to 1200 nM. Consider `CN(C)c1ncc(-c2nc3ccncc3n2-c2ccc(Cl)cc2)cn1` [Example 72, 5-[3-(4-Chlorophenyl)-3H-imidazo[4,5-c]pyridin-2-yl]-N,N-dimethylpyrimidin-2-amine], for which the IC50 lay in the range of 200 to 1200 nM. As to `Fc1ccc(-n2c(-c3ccnc(N4CCOCC4)c3)nc3ccncc32)cc1` [Example 73, 4-{4-[3-(4-Fluorophenyl)-3H-imidazo[4,5-c]pyridin-2-yl]pyridin-2-yl}morpholine], the IC50 lay in the range of 50 to 200 nM. On to `Fc1cc(-n2c(-c3cnc(N4CCOCC4)nc3)nc3ccncc32)ccc1Cl` [Example 74, 4-{5-[3-(4-Chloro-3-fluorophenyl)-3H-imidazo[4,5-c]pyridin-2-yl]pyrimidin-2-yl}morpholine], for which the IC50 is 200 to 1200 nM. The result for `Fc1ccc(-n2c(-c3cnc(N4CCOCC4)nc3)nc3ccncc32)nc1` [Example 76, 4-{5-[3-(5-Fluoropyridin-2-yl)-3H-imidazo[4,5-c]pyridin-2-yl]pyrimidin-2-yl}morpholine] reads 50 to 200 nM. For `Fc1cc(Cl)ccc1-n1c(-c2cnc(N3CCOCC3)nc2)nc2ccncc21` [Example 77, 4-{5-[3-(4-Chloro-2-fluorophenyl)-3H-imidazo[4,5-c]pyridin-2-yl]pyrimidin-2-yl}morpholine], the IC50 is 200 to 1200 nM. As for `Fc1cc(Cl)ccc1-n1c(-c2ccc(N3CCOCC3)nc2)nc2ccncc21` [Example 80, 4-{5-[3-(4-Chloro-2-fluorophenyl)-3H-imidazo[4,5-c]pyridin-2-yl]pyridin-2-yl}morpholine], the concentration for half-maximal inhibition (IC50) is 50 to 200 nM. For `NC(=O)NC1CCN(c2ccc(-c3nc4ccncc4n3-c3ccc(Cl)cc3)cn2)CC1` [Example 91, (1-{5-[3-(4-Chlorophenyl)-3H-imidazo[4,5-c]pyridin-2-yl]pyridin-2-yl}piperidin-4-yl)urea; bis(trifluoroacetic acid)], the IC50 is 200 to 1200 nM. The figure for `NC(=O)N1CCN(c2ncc(-c3nc4ccncc4n3-c3ccc(Cl)cc3)o2)CC1` [Example 93, 4-{5-[3-(4-Chlorophenyl)-3H-imidazo[4,5-c]pyridin-2-yl]-1,3-oxazol-2-yl}piperazine-1-carboxamide] is 50 to 200 nM; for `NC(=O)N1CCCN(c2ccc(-c3nc4ccncc4n3-c3ccc(F)cc3)cn2)CC1` [Example 94, 4-{5-[3-(4-Fluorophenyl)-3H-imidazo[4,5-c]pyridin-2-yl]pyridin-2-yl}-1,4-diazepane-1-carboxamide] it is 200 to 1200 nM; for `c1ccc(-n2c(-c3cnc(N4CCOCC4)nc3)nc3ccncc32)cc1` [Example 95, 4-(5-{3-Phenyl-3H-imidazo[4,5-c]pyridin-2-yl}pyrimidin-2-yl) morpholine] it is 50 to 200 nM. In the case of `c1cc2nc(-c3cnc(N4CCOCC4)nc3)n(-c3ccc(C4CC4)cc3)c2cn1` [Example 96, 4-{5-[3-(4-Cyclopropylphenyl)-3H-imidazo[4,5-c]pyridin-2-yl]pyrimidin-2-yl}morpholine], the IC50 lay in the range of 50 to 200 nM. Regarding `Cc1ccc(-n2c(-c3cnc(N4CCOCC4)cc3C)nc3ccncc32)cc1` [Example 97, 4-{4-Methyl-5-[3-(4-methylphenyl)-3H-imidazo[4,5-c]pyridin-2-yl]pyridin-2-yl}morpholine], the IC50 lay in the range of 200 to 1200 nM. The figure for `Fc1ccc(-n2c(-c3cnc(N4CCOCC4)c(F)c3)nc3ccncc32)cc1` [Example 98, 4-{3-Fluoro-5-[3-(4-fluorophenyl)-3H-imidazo[4,5-c]pyridin-2-yl]pyridin-2-yl}morpholine] is 50 to 200 nM. On to `Cc1cc(NC2CCOCC2)ncc1-c1nc2ccncc2n1-c1ccc(F)cc1` [Example 100, 5-[3-(4-Fluorophenyl)-3H-imidazo[4,5-c]pyridin-2-yl]-4-methyl-N-(oxan-4-yl)pyridin-2-amine], for which the IC50 fell in the range of 200 to 1200 nM. With `Cc1cc(NCC2CC2)ncc1-c1nc2ccncc2n1-c1ccc(F)cc1` [Example 101, N-(Cyclopropylmethyl)-5-[3-(4-fluorophenyl)-3H-imidazo[4,5-c]pyridin-2-yl]-4-methylpyridin-2-amine], the IC50 was in the range of 50 to 200 nM. In the case of `Cc1ccc(-n2c(-c3ccc(N4C[C@@H](C)O[C@@H](C)C4)nc3)nc3ccncc32)cn1` [Example 103, (2R,6S)-2,6-Dimethyl-4-{5-[3-(6-methylpyridin-3-yl)-3H-imidazo[4,5-c]pyridin-2-yl]pyridin-2-yl}morpholine; tris(trifluoroacetic acid)], the IC50 fell in the range of 50 to 200 nM. As to `Nc1ccc(-c2nc3ccncc3n2-c2ccc(Cl)cc2F)cn1` [Example 105, 5-[3-(4-Chloro-2-fluorophenyl)-3H-imidazo[4,5-c]pyridin-2-yl]pyridin-2-amine], the IC50 lay within 200 to 1200 nM.

For `CN1CCN(c2ccc(-c3nc4ccncc4n3-c3ccc(F)cc3)cn2)CC1=O` [Example 106, 4-{5-[3-(4-Fluorophenyl)-3H-imidazo[4,5-c]pyridin-2-yl]pyridin-2-yl}-1-methylpiperazin-2-one], the IC50 lay within 50 to 200 nM.

`Cc1nc(N2CCOCC2)ccc1-c1nc2ccncc2n1-c1ccc(F)cc1` [Example 108, 4-{5-[3-(4-Fluorophenyl)-3H-imidazo[4,5-c]pyridin-2-yl]-6-methylpyridin-2-yl}morpholine]: the IC50 fell in the range of 200 to 1200 nM. As for `CN(C)c1cc(-c2nc3ccncc3n2-c2ccc(F)cc2)ccn1` [Example 109, 4-[3-(4-Fluorophenyl)-3H-imidazo[4,5-c]pyridin-2-yl]-N,N-dimethylpyridin-2-amine], the IC50 lay within 200 to 1200 nM.

With `Nc1ccc(-c2nc3ccncc3n2-c2ccc(Cl)cc2)cn1` [Example 110, 5-[3-(4-Chlorophenyl)-3H-imidazo[4,5-c]pyridin-2-yl]pyridin-2-amine], the IC50 lay in the range of 200 to 1200 nM.
